Assay results as given in US20090030037A1, “Sustained Release Formulation and Dosing Schedules of Leukotriene Synthesis Inhibitor for Human Therapy” (deCODE Genetics ehf., priority 2005, published 2009).
“And” between values parts separate entries of the source, which are not always exact repeats. Equal values may be shown once. Read-outs that look alike come from different tables or passages of the source.

Tests used:
[1] = tested on: MPO release, human whole blood; assay: In vitro MPO release in human whole blood after ionomycin stimulation; assay type: cell-based
Method: Neutrophils and other cells in human whole blood respond in vitro to activation by a calcium ionophore (e.g., ionomycin), with an increase in LTB4 production and with coupled release of MPO stimulated in part by LTB4 production in the assay. The effect of DG-031 on the capacity for production of LTB4 in vitro after ionomycin stimulation was evaluated at concentrations ranging from 0.1 μM up to 240 μM.
Blood samples collected from the clinical study described in Example 2 were evaluated assuming that the ex vivo response profile in clinical samples parallels the in vitro response over the entire concentration range, 250 mg TID dosing which maintains concentrations above 2-3 μg/ml (˜7 μM) should maintain a 30% or greater reduction of capacity for LTB4 production at all times. Peak concentrations of DG-031 with 250 mg TID dosing were about 10 μg/ml (28 μM) and should be associated with about 65% reduction of capacity for LTB4 production. The typical patient's pharmacodynamic response was expected to fluctuate between 30% and 65% reduction of capacity for LTB4 production over the course of a dosing interval.

[2] = Steady-state DG-031 plasma concentrations and half-life, studies DG-031-201 and DG-031-203; assay type: in vivo, human; details: humans
Excerpt: Maintaining the minimum concentration using TIED dosing requires only about 70% of the drug that is required for a BID schedule. TID dosing is a more efficient process in terms of drug utilization when the goal is maintaining concentrations above a minimum threshold. It has the added advantage of reducing a patient's total exposure to the drug.

[3] = Study DG-031-204: creatine kinase; assay type: in vivo, human; details: 500 mg BID or TID
Method: An additional single site, open label study was carried out to obtain biomarker and safety data on additional DG-031 doses (i.e., 1000 mg and 1500 mg). This study examined the safety, tolerability and dose-related effects of DG-031 on inflammatory biomarkers including: LTB4, hsCRP, and MPO. A total of 119 patients with a prior history of CAD and MI were randomized to receive either 1000 mg DG-031 (500 mg BID) or 1500 mg DG-031 (500 mg TID) daily for 4-6 weeks. Treatment with DG-031 in addition to the subject's standard care, medication, and treatment, was prescribed by the patient's cardiologist. A majority of the subjects received statin therapy before, during and after the study. Follow-up assessments were performed 2 weeks after the end of study drug administration.
Liver function tests (AST, ALT, GGT) were assessed weekly during study drug administration and two weeks after dosing. […] Serum creatinine (Cr) was measured weekly during study drug administration and two weeks after dosing. In both the 500 mg BID and 500 mg TID treatment groups, mean serum Cr concentrations increased 4-5% relative to baseline levels. At the 2-week follow up visit, mean serum Cr returned to baseline in the cohort treated for 4 weeks, but remained elevated in the group treated for 6 weeks. Creatine kinase (CK) measurements were obtained weekly during study drug administration and two weeks after dosing.

[4] = Study DG-031-204: steady state DG-031 plasma concentrations; assay type: in vivo, human; details: for concentration at 0 h / concentration at 0.5 h / concentration at 1 h / concentration at 2 h / concentration at 4 h / concentration at 6 h: human, plasma, oral, 500 mg, read-out: Steady state DG-031 exposure, Geometric Mean; for concentration at 0 h: 0 hr post dose; for concentration at 0.5 h: 0.5 hr post dose; for concentration at 1 h: 1 hr post dose; for concentration at 2 h: 2 hr post dose; for concentration at 4 h: 4 hr post dose; for concentration at 6 h: 6 hr post dose
Method: Blood samples were collected for determining DG-031 concentrations in a subset of patients (n=22). Samples were collected just prior to dosing and at 0.5, 1, 2, 4, and 6 hours following administration of DG-031 500 mg BID or TID.

LTB4 = assay: Exposure-response analysis: estimated reduction in stimulated LTB4 by DG-031 daily dose; assay type: in vivo, human; details: for Estimated Percent LTB4 Reduction by DG-031 Daily Dose, Mean: stimulated LTB4, mean model prediction from studies DG-031-201 and DG-031-203
Method: Administration of DG-031 500 mg BID reduced LTB4 levels to the target 35% reduction, as measured in the ionophore-stimulation assay described in Example 1. The estimated DG-031-induced reduction in stimulated LTB4 levels was based on all the relevant data observed in the DG-031-201 and DG-031-203 studies. The control baseline was 7.8%. The data presented in Table 14 are the mean and the 5th and 95th percentiles based on the mean model prediction (the 90% confidence interval on the estimated LTB4 response).
The pharmacokinetic characteristics of the tested DG-031 formulation result in an observed mean peak concentrations of 8.8 μg/mL and mean trough concentrations of 4.3 μg/mL. (Table 18) The characteristics of the tested formulation leads to prolonged drug absorption that minimizes the peak to trough fluctuation in DG-031 plasma concentration and LTB4 response.

[5] = asthma patients, cited from earlier work

SMILES: O=C(O)[C@@H](c1ccc(OCc2ccc3ccccc3n2)cc1)C1CCCC1 [DG-031, (R)-(+)-alpha-cyclopentyl-4-(2-quinolinylmethoxy)-Benzeneacetic acid]
- Concentration at which MPO release is maximally inhibited in vitro [1]: about 6 μM and ~2 μg/ml
- Dominant half-life [2]: 2.5 to 3 h
- Mean CK concentrations [3]: No adverse trends
- DG-031 concentrations observed ([4]; 500 mg BID or TID, subset n=22): up to 20.3 μg/mL
- Mean trough concentration ([4]; 500 mg BID, steady state): 4.3 µg/mL
- Observed mean peak concentration ([4]; 500 mg BID, steady state): 8.8 µg/mL
- Observed peak to trough fluctuation ([4]; 12 hour period, BID dosing regimen): 2-3 fold
- concentration at 0 h ([4]; 500 mg BID): 4300 ng/mL
- concentration at 0.5 h ([4]; 500 mg BID): 4700 ng/mL
- concentration at 1 h ([4]; 500 mg BID): 6100 ng/mL
- concentration at 2 h ([4]; 500 mg BID): 8600 ng/mL
- concentration at 4 h ([4]; 500 mg BID): 8800 ng/mL
- concentration at 6 h ([4]; 500 mg BID): 7000 ng/mL
- concentration at 0 h ([4]; 500 mg TID): 6900 ng/mL
- concentration at 0.5 h ([4]; 500 mg TID): 6800 ng/mL
- concentration at 1 h ([4]; 500 mg TID): 8500 ng/mL
- concentration at 2 h ([4]; 500 mg TID): 10100 ng/mL
- concentration at 4 h ([4]; 500 mg TID): 10000 ng/mL
- concentration at 6 h ([4]; 500 mg TID): 7400 ng/mL
- Average drug exposure (LTB4; 500 mg BID (1000 mg daily)): 7.6 µg/mL
- Reduction in stimulated LTB4 production (LTB4; 500 mg BID, 90% prediction interval −45% to −24%): 37%
- Estimated Percent LTB4 Reduction by DG-031 Daily Dose, Mean (LTB4; daily dose 250): −8.7%
- Estimated Percent LTB4 Reduction by DG-031 Daily Dose, Mean (LTB4; daily dose 500): −19.4%
- Estimated Percent LTB4 Reduction by DG-031 Daily Dose, Mean (LTB4; daily dose 750): −28.8%
- Estimated Percent LTB4 Reduction by DG-031 Daily Dose, Mean (LTB4; daily dose 1000): −37.1%
- Estimated Percent LTB4 Reduction by DG-031 Daily Dose, Mean (LTB4; daily dose 1250): −44.5%
- Estimated Percent LTB4 Reduction by DG-031 Daily Dose, Mean (LTB4; daily dose 1500): −50.9%
- Safety and tolerability ([5]; total daily dose 250-1000 mg, 14 days): safe and well tolerated
- Safety and tolerability ([5]; total daily doses 100-1000 mg, 14-42 days): safe and well tolerated
